The target in assay [1] is BChE (Homo sapiens, UniProt P06276). The class given is biochemical.
The target of assay [2] is BChE (Cavia porcellus, UniProt H0V4F8). Format: biochemical, guinea pig.
The target of assay [3] is BChE (Rattus norvegicus, UniProt Q9JKC1). Format: biochemical.
Sequence of BChE (Rattus norvegicus, UniProt Q9JKC1) (Q9JKC1 24-597 limits assumed): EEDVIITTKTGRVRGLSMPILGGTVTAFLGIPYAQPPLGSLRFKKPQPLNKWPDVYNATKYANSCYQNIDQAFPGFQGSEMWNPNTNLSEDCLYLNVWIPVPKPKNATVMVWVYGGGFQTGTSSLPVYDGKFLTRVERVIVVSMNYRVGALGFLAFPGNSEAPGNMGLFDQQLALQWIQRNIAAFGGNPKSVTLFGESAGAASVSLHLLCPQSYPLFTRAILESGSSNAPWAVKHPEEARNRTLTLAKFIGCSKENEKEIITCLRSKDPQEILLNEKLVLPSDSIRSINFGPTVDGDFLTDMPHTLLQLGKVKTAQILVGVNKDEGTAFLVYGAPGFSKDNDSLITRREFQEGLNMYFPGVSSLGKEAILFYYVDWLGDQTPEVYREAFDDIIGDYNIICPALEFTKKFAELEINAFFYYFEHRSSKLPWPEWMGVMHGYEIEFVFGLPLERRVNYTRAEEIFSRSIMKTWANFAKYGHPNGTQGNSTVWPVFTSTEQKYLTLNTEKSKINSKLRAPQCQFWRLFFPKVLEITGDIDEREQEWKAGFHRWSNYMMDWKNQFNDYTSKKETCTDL

Sequence of BChE (Cavia porcellus, UniProt H0V4F8) (H0V4F8 29-602 limits assumed): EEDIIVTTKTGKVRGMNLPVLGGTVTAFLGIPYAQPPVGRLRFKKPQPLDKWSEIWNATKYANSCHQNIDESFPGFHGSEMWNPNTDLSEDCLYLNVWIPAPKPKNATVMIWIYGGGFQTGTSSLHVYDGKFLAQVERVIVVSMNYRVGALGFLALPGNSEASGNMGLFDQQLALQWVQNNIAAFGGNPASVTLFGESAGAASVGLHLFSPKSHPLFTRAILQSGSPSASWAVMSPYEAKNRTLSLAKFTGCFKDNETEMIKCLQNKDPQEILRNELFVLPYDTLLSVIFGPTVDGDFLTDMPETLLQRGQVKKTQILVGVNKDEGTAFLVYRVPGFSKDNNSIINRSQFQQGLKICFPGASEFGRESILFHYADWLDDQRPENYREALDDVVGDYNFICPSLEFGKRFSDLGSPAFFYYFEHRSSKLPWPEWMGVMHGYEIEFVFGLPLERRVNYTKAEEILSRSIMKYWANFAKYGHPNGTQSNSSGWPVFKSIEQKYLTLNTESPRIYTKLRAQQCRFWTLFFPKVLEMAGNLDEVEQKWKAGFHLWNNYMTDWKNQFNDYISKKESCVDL
Sequence of BChE (Homo sapiens, UniProt P06276) (P06276 29-602): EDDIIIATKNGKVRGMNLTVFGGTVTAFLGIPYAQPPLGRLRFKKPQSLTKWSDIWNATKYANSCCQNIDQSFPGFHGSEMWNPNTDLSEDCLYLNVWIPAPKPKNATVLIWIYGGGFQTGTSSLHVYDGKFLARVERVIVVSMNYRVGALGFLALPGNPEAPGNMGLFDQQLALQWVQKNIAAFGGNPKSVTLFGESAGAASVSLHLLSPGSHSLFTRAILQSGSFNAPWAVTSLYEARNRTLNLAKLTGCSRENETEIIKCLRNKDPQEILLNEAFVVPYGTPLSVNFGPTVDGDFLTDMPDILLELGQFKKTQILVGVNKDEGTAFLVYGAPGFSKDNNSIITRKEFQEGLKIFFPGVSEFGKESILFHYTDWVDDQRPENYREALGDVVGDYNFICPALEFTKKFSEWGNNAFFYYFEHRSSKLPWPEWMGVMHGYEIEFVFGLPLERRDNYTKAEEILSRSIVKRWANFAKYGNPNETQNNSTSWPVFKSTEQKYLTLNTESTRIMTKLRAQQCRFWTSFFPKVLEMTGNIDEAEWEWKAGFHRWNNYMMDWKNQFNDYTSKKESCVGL

As for `CCOP(=O)(OCC)SCSCC` [PHO, phorate oxon], the figures for the “OP Inhibitory Concentrations of at least 80% BChE” value at BChE [1], at BChE [2] and on BChE [3] were 0.178 µM, 5.60 µM and 10.0 µM, respectively.
With `CCOP(=O)(OCC)SC[S+]([O-])CC` (centres unmarked) [PHOsox, phorate oxon sulfoxide], on BChE [3], the “BChE inhibitory potency relative to phorate oxon” value was “ten-fold more potent” and the “OP Inhibitory Concentrations of at least 80% BChE” value was found to be 1.00 µM.
As to `CCOP(=O)(OCC)Oc1ccc([N+](=O)[O-])cc1` [PXN, phosphoric acid diethyl 4-nitrophenyl ester], the “OP Inhibitory Concentrations of at least 80% BChE” value on BChE [1] turned out to be 0.032 µM; on BChE [2], 0.178 µM; on BChE [3], 1.78 µM.

Source of the values: US20170258774A1 (priority 2016, published 2017).
